# Source: ChEMBL document CHEMBL1150825, “Anti-HIV prenylated flavonoids from Monotes africanus” (J Nat Prod, 2001)
# System: Human immunodeficiency virus
# Test: Antiviral activity against HIV assessed as protection against virus-induced cytopathicity by cell based XTT assay; call rule not given here
# Format: functional, organism-based
# [1] = Human immunodeficiency virus 1, read-out: EC50
SMILES,EC50,IC50 (Human immunodeficiency virus 1) [µg/mL],EC50 [1] [µg/mL]
C=CC(C)(C)c1c(O)cc2c(c1O)C(=O)C[C@@H](c1ccc(O)cc1)O2,Not Active,,
CC(C)=CCc1c(O)c(CC=C(C)C)c2c(c1O)C(=O)[C@H](O)[C@@H](c1ccc(O)cc1)O2,,4.7,2.1
CC(C)=CCc1c(O)c(CC=C(C)C)c2oc(-c3ccc(O)cc3)c(O)c(=O)c2c1O,,5.8,2.4
CC(C)=CCC/C(C)=C/Cc1c(O)cc2c(c1O)C(=O)[C@H](O)[C@@H](c1ccc(O)cc1)O2 [BONANNIOL A],Not Active,,
CC(C)=CCc1c(O)c(CC=C(C)C)c2c(c1O)C(=O)C[C@@H](c1ccc(O)cc1)O2 [LONCHOCARPOL A],,2.7,1.3
CC(C)=CCC/C(C)=C/Cc1c(O)cc2oc(-c3ccc(O)cc3)c(O)c(=O)c2c1O [MACARANGIN],Not Active,,
